According to patent US11059795B2, “Androgen receptor modulators and methods for their use” (ESSA Pharma, Inc., priority 2018, dated 2021):

Assays:
[1] = Microsomal stability assay, mouse liver microsomes; assay type: in vitro ADME; conditions: mouse, liver microsomes, pH 7.4, mouse liver microsomes, 1 μM compound, 0.5 mg/mL protein, 37° C.; read-out: MLM +30/− NADPH: Clint (μL/min/mg protein)
How it was run: (§1)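 Compound at 1 μM was incubated at 37° C with 0.5 mg/mL liver microsomes and 1 mM NADPH and/or 1 mM UDPGA (with alamethicin) in 100 mM potassium phosphate pH 7.4, 3 mM MgCl2. Samples were taken at 0, 15, 30 and 60 min and measured by LC/MS/MS. t½ came from compound loss relative to 0 min, and Clint was scaled with 45 mg microsomal protein/g liver.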

[2] = In vivo pharmacokinetics in plasma after oral gavage (PO) in male CD-1 mice; conditions: plasma, single PO dose 5 mg/kg, male CD-1 mice; for bioavailability / AUC(0-t) / Cmax / Tmax / half-life: mouse; for bioavailability: oral availability; for half-life: read-out: t½ (converted)
Protocol: The purpose of this study is to determine the pharmacokinetics of the tested compounds in plasma, following oral gavage administration (PO) to male CD-1 mice.
Animal Husbandry: Animals were group housed during acclimation and the study. The animal room environment were controlled (target conditions: temperature 18 to 26° C., relative humidity 30 to 70%, 12 hours artificial light and 12 hours dark). Temperature and relative humidity were monitored daily. Animals were fasted at least 12 hours prior to the administration. All animals had access to Certified Rodent Diet ad libitum 4 hours post dosing.
Dose Formulation: prepared 85-100 uL of a stock solution of representative compounds of the disclosure in DMSO at 50 mM; 1.5% v/v of Tween 80 were added and mixed gently; 95.5% v/v saline was added gently to the organic phase. The solution was mixed slowly by reverse pipetting to get a clear solution.
Dose Administration: the dose formulations were administered via oral gavage per facility SOPs. The dose volume were determined by the animals' body weight collected on the morning of dosing day
Sample Collection: blood collection (about 0.05 mL per time point) was performed from saphenous vein of each animal into polypropylene tubes at each timepoints (0, 0.25, 0.5, 1, 2, 4, 8, 12, and 24 hr). All blood samples were transferred into pre-chilled tubes containing 2 μL of K2-EDTA (0.5M) and placed on wet ice until centrifugation. Each collected blood sample was in the wet-ice before centrifugation. Each collected blood was under centrifugation for 15 minutes at 4° C. and 3000 g for plasma collection. Plasma samples were stored in polypropylene tubes, quickly frozen over dry ice and kept at −70±10° C. until LC/MS/MS analysis.
Bioanalytical analysis: A LC-MS/MS method for the quantitative determination of tested compound in biological matrix were developed under non-GLP compliance. A calibration curve with at least 7 non-zero calibration standards were applied for the method including LLOQ.
Plasma concentration versus time data were analyzed by non-compartmental approaches using the Phoenix WinNonlin 6.3 software program. Cl, Vdss, C0, Cmax, Tmax, T^1/2, AUC(0-t), AUC(0-inf), MRT(0-t), MRT(0-inf), % F (oral availability) and graphs of plasma concentration versus time profile were reported.

androgen receptor (AR) = molecular target: T1, androgen receptor (AR) (Homo sapiens, UniProt P10275, T878A); experiment: Androgen-induced PSA (6.1 kb)-luciferase reporter assay in LNCaP cells; assay type: cell-based; conditions: LNCaP cells transfected with PSA (6.1 kb)-luciferase reporter, R1881 1 nM, 24 h; read-out: PSA-Luc IC50 Range
T1 construct: LNCaP cells were transiently transfected with the PSA (6.1 kb)-luciferase reporter for 24 h; endogenous in cells; host or cells: LNCaP
T1 sequence (P10275 1-920 T878A): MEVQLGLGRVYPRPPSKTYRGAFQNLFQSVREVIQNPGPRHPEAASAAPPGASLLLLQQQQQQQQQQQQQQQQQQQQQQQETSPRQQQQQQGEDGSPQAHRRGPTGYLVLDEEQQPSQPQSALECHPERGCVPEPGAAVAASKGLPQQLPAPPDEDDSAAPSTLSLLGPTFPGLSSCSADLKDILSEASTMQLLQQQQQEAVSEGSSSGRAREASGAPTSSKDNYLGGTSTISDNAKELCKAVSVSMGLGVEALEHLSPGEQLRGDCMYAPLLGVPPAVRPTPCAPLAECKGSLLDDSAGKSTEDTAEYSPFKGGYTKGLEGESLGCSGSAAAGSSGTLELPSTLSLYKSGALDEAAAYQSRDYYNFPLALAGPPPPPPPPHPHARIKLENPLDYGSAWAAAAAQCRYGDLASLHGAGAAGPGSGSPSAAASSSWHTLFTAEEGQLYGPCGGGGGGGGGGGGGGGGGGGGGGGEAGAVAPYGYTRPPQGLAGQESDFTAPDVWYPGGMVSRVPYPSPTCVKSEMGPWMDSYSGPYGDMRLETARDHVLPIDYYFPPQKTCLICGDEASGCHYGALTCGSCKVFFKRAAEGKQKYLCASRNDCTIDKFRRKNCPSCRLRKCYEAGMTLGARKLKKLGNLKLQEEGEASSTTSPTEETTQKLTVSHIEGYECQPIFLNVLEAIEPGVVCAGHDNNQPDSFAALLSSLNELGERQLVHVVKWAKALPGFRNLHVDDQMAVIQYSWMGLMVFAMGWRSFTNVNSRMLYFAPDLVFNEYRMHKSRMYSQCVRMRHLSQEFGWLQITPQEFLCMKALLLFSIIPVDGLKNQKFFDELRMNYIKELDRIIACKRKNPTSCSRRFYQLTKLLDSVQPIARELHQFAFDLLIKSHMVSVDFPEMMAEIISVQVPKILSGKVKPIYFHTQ
How it was run: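 Read-out is firefly luminescence (10 s) in LNCaP lysates, normalized to protein, from an ARE-containing PSA (6.1 kb)-luciferase reporter driven by androgen.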

[3] = Microsomal stability assay, human liver microsomes; assay type: in vitro ADME; conditions: pH 7.4, 1 μM compound, 0.5 mg/mL protein, 37° C., read-out: HLM +/− NADPH: Clint (μL/min/mg protein)
How it was run: as §1

[4] = molecular target: T2, LBD of progesterone receptor-beta (PRβ) fused to DBD of GAL4 (Homo sapiens, UniProt P06401); experiment: LBD-expressing reporter assay (GeneBLAzer), PR LBD; assay type: cell-based; conditions: inhibition of maximal activity attained with agonist; read-out: Steroid Receptor LBD IC50 (μM) PR
T2 sequence (P06401 679-913 limits assumed): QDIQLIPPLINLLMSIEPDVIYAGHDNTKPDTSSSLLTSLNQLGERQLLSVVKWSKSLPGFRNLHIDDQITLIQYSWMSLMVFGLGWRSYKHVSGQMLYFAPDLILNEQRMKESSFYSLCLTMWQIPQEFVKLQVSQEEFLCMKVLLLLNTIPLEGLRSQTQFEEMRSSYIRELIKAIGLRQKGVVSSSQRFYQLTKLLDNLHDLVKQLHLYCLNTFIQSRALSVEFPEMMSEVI
From the text: (§2) This assay uses cells that stably express a chimera fusion protein comprising the LBD of a steroid hormone receptor fused to the DNA-binding domain (DBD) of GAL4 along with beta-lactamase reporter under transcriptional control of an upstream activator sequence (UAS). When agonist binds to the LBD of the GAL4 (DBD)-steroid hormone (LBD) chimera fusion protein, the protein binds to the UAS, resulting in expression of beta-lactamase. LBDs of androgen receptor (AR), progesterone receptor-beta (PRβ), glucocorticoid receptor (GR), estrogen receptor-α (ERα), and estrogen receptor-β (ERβ) were tested and IC50s calculated for inhibiting maximal activity attained with agonist.

[5] = molecular target: T3, LBD of estrogen receptor-α (ERα) fused to DBD of GAL4 (Homo sapiens, UniProt P03372); experiment: LBD-expressing reporter assay (GeneBLAzer), ERα LBD; assay type: cell-based; conditions: inhibition of maximal activity attained with agonist; read-out: Steroid Receptor LBD IC50 (μM) ERα
T3 sequence (P03372 311-547 limits assumed): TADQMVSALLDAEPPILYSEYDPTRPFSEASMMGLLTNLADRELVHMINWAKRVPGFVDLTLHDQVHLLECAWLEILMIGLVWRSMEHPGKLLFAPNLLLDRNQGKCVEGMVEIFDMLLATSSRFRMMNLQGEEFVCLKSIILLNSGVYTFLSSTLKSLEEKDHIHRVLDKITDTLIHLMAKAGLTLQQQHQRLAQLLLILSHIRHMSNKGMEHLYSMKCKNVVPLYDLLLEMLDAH
From the text: as §2

[6] = molecular target: T4, LBD of glucocorticoid receptor (GR) fused to DBD of GAL4 (Homo sapiens, UniProt P04150); experiment: LBD-expressing reporter assay (GeneBLAzer), GR LBD; assay type: cell-based; conditions: inhibition of maximal activity attained with agonist; read-out: Steroid Receptor LBD IC50 (μM) GR
T4 sequence (P04150 524-758 limits assumed): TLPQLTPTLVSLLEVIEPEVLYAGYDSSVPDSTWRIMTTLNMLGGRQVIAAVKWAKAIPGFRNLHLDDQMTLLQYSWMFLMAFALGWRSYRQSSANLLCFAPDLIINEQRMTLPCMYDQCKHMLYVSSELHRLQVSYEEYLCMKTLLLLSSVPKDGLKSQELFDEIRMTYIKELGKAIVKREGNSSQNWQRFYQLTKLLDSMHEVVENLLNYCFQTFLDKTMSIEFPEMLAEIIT
From the text: as §2

PC3 cells = experiment: Cell proliferation/viability assay, PC3 (Alamar blue); assay type: cell-based; conditions: Homo sapiens; PC-3, Alamar blue; read-out: Cellular Proliferation/Viability IC50 (μM) PC-3
Protocol: (§3) Cell proliferation/viability was measured in LNCaP and PC3 cells with Alamar blue, and proliferation was measured in LN-CaP95 cells with BrdU incorporation. In LNCaP cells, AR specific proliferation is calculated by measuring the difference between control cells treated with or without 0.1 nM R1881.

LN-CaP95 cells = experiment: Cell proliferation assay, LNCaP95 (BrdU incorporation); assay type: cell-based; conditions: LNCaP-95, read-out: Cellular Proliferation/Viability IC50 (μM) LNCaP95
Protocol: as §3

LNCaP cells = experiment: Cell proliferation/viability assay, LNCaP (Alamar blue); assay type: cell-based; conditions: Homo sapiens, AR specific proliferation with 0.1 nM R1881, read-out: Cellular Proliferation/Viability IC50 (μM) LNCaP
Protocol: as §3

[7] = molecular target: LBD of estrogen receptor-β (ERβ) fused to DBD of GAL4 (Homo sapiens, UniProt Q92731); experiment: LBD-expressing reporter assay (GeneBLAzer), ERβ LBD; assay type: cell-based; conditions: inhibition of maximal activity attained with agonist; read-out: Steroid Receptor LBD IC50 (μM) ERβ
From the text: as §2, with “To assess if the representative compounds (Compounds A13, A28, A38, A74, A93, and A109) compete with ligand (agonist) for the ligand-binding domain (LBD) of steroid hormone receptors (which would be off-target), the GeneBLAzer assay was employed (Thermo Fisher). This” for “This”

[8] = Hepatocyte stability assay, mouse hepatocytes; assay type: in vitro ADME; conditions: mouse, cryopreserved hepatocytes, 1 μM compound, 0.5 million cells/mL, 37° C., read-out: MH +/− NADPH: Clint (μL/min/million cells)
How it was run: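 Cryopreserved rat, human or mouse hepatocytes at 0.5 million cells/mL in DMEM with 1 μM compound, 37° C, sampled at 0, 60, 120 and 180 min and quenched with acetonitrile/formic acid. Parent loss vs 0-min by LC/MS/MS gave t½, and Clint = 0.693/t½ × mL incubation/million cells.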

LBD of estrogen receptor-β (ERβ) fused to DBD of GAL4, sequence (Q92731 264-498 limits assumed): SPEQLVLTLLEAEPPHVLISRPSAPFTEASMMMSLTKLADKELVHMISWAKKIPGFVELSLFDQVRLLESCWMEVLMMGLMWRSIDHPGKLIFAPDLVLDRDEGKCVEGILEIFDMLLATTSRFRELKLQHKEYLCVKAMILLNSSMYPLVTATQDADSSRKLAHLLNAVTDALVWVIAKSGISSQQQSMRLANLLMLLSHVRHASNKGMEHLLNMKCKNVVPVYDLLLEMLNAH

Row | SMILES | microsomal CLint at 1 μM [1] | bioavailability [2] | AUC(0-t) [2] | Cmax [2] | Tmax [2] | half-life [2] | AUC/D [2] | IC50 (androgen receptor (AR)) | microsomal CLint at 1 μM [3] | IC50 [4] | IC50 [5] | IC50 [6] | IC50 (PC3 cells) | IC50 (LN-CaP95 cells) | IC50 (LNCaP cells) | IC50 [7] | hepatocyte CLint at 1 μM [8]
1 | CC(C)(c1ccc(OC[C@H](O)CO)cc1)c1ccc(OC[C@H](O)CCl)cc1 [EPI-002, reference compound] | – | – | – | – | – | – | – | – | – | > 10 µM | > 10 µM | > 10 µM | > 10 µM | ~20 µM | 9 µM | > 10 µM | –
2 | CC(C)(c1ccc(OCc2cnc(C#N)o2)cc1)c1cc(Cl)c(OCCCl)c(C#N)c1 [Compound A113] | 12 to 48 µL/min/mg | – | – | – | – | – | – | > 2 µM | 12 to 48 µL/min/mg | – | – | – | – | – | – | – | ≥ 18 µL/min/1e6 cells

Next, values leading:

Row | microsomal CLint at 1 μM [1] | bioavailability [2] | AUC(0-t) [2] | Cmax [2] | Tmax [2] | half-life [2] | AUC/D [2] | IC50 (androgen receptor (AR)) | microsomal CLint at 1 μM [3] | IC50 [4] | IC50 [5] | IC50 [6] | IC50 (PC3 cells) | IC50 (LN-CaP95 cells) | IC50 (LNCaP cells) | IC50 [7] | hepatocyte CLint at 1 μM [8] | SMILES
3 | < 12 µL/min/mg | 71.4% | 11900 ng·h/mL | 1610 ng/mL | 0.8 h | 12 h | 2385.4 kg·ng·h/mL/mg | 0.5 to 2 µM | < 12 µL/min/mg | – | – | – | – | – | – | – | – | CC(C)(c1ccc(OCc2ncc(S(C)(=O)=O)o2)cc1)c1cc(Cl)c(OCCCl)c(Cl)c1 [Compound A66]
4 | 12 to 48 µL/min/mg | 60.6% | 5190 ng·h/mL | 2010 ng/mL | 0.5 h | 2.5 h | 1037.3 kg·ng·h/mL/mg | < 0.5 µM | 12 to 48 µL/min/mg | – | – | – | – | – | – | – | – | Cc1cc(C(C)(C)c2ccc(OCc3ocnc3S(C)(=O)=O)cc2)cc(C#N)c1OCCCl [Compound A29, 2-(2-chloroethoxy)-3-methyl-5-(2-(4-((4-(methylsulfonyl)oxazol-5-yl)methoxy)phenyl)propan-2-yl)benzonitrile]
5 | 12 to 48 µL/min/mg | 49.6% | 2420 ng·h/mL | 819 ng/mL | 0.5 h | 4 h | 483.0 kg·ng·h/mL/mg | 0.5 to 2 µM | < 12 µL/min/mg | – | – | – | – | – | – | – | – | CC(Oc1ccc(C(C)(C)c2cc(Cl)c(OCCCl)c(Cl)c2)cc1)c1ocnc1S(C)(=O)=O (centres unmarked) [Compound A35, 5-(1-(4-(2-(3,5-Dichloro-4-(2-chloroethoxy)phenyl)propan-2-yl)phenoxy)ethyl)-4-(methylsulfonyl)oxazole]
